Experimental data from ChEMBL document CHEMBL3885881, “DrugMatrix”.

Species: Rattus norvegicus
Assay: DrugMatrix - Regimen: Daily Repeat
Assay type: toxicity, organism-based, Sprague-Dawley
Set-up: regimen Daily Repeat, gender Male, age 6-8 weeks
Settings: in vivo, po, 500 mg/kg, route oral GAVAGE, dose level High, vehicle 100 % WATER; for ABSOLUTE BASOPHIL / ABSOLUTE EOSINOPHIL / ABSOLUTE LYMPHOCYTE / ABSOLUTE MONOCYTE / ABSOLUTE SEGMENTED NEUTROPHIL / BASOPHIL / EOSINOPHIL / ERYTHROCYTE COUNT / HEMATOCRIT / HEMOGLOBIN / LEUKOCYTE COUNT / LYMPHOCYTE / MEAN CORPUSCULAR HEMOGLOBIN / MEAN CORPUSCULAR HEMOGLOBIN CONCENTRATION / MEAN CORPUSCULAR VOLUME / MONOCYTE / NEUTROPHIL / NUCLEATED RED BLOOD CELLS / PLATELET COUNT: tissue Blood; for ALANINE AMINOTRANSFERASE / ALBUMIN / ALKALINE PHOSPHATASE / ASPARTATE AMINOTRANSFERASE / BLOOD UREA NITROGEN / CARBON DIOXIDE / CHLORIDE / CHOLESTEROL / CREATINE PHOSPHOKINASE / CREATININE / GLUCOSE / LACTATE DEHYDROGENASE / LIPASE / PHOSPHORUS / POTASSIUM / SODIUM / TOTAL BILIRUBIN / TOTAL PROTEIN / URIC ACID: tissue Plasma

Compound: Cc1c(O)c(=O)ccn1C [DEFERIPRONE]
- ABSOLUTE BASOPHIL (72 h, time 3 day): 0 CELLS/uL
- ABSOLUTE EOSINOPHIL (72 h, time 3 day): 97 CELLS/uL
- ABSOLUTE LYMPHOCYTE (72 h, time 3 day): 8507 CELLS/uL
- ABSOLUTE MONOCYTE (72 h, time 3 day): 223 CELLS/uL
- ABSOLUTE SEGMENTED NEUTROPHIL (72 h, time 3 day): 223 CELLS/uL
- BASOPHIL (72 h, time 3 day): 0%
- EOSINOPHIL (72 h, time 3 day): 1%
- ERYTHROCYTE COUNT (72 h, time 3 day): 4.97 x10E6/uL
- HEMATOCRIT (72 h, time 3 day): 30.95%
- HEMOGLOBIN (72 h, time 3 day): 11.7 G/DL
- LEUKOCYTE COUNT (72 h, time 3 day): 9.05 x10E3/uL
- LYMPHOCYTE (72 h, time 3 day): 94%
- MEAN CORPUSCULAR HEMOGLOBIN (72 h, time 3 day): 23.55 pg
- MEAN CORPUSCULAR HEMOGLOBIN CONCENTRATION (72 h, time 3 day): 37.8 G/DL
- MEAN CORPUSCULAR VOLUME (72 h, time 3 day): 62.15 fL
- MONOCYTE (72 h, time 3 day): 2.5%
- NEUTROPHIL (72 h, time 3 day): 2.5%
- NUCLEATED RED BLOOD CELLS (72 h, time 3 day): 0 /100WBC
- PLATELET COUNT (72 h, time 3 day): 1456.5 x10E3/uL
- ALANINE AMINOTRANSFERASE (72 h, time 3 day): 39 u/L
- ALBUMIN (72 h, time 3 day): 4.4 G/DL
- ALKALINE PHOSPHATASE (72 h, time 3 day): 373 u/L
- ASPARTATE AMINOTRANSFERASE (72 h, time 3 day): 80 u/L
- BLOOD UREA NITROGEN (72 h, time 3 day): 18.5 mg/dL
- CARBON DIOXIDE (72 h, time 3 day): 22.5 mmol/L
- CHLORIDE (72 h, time 3 day): 105.5 MEQ/L
- CHOLESTEROL (72 h, time 3 day): 119 mg/dL
- CREATINE PHOSPHOKINASE (72 h, time 3 day): 322.5 u/L
- CREATININE (72 h, time 3 day): 0.18 mg/dL
- GLUCOSE (72 h, time 3 day): 131 mg/dL
- LACTATE DEHYDROGENASE (72 h, time 3 day): 239 u/L
- LIPASE (72 h, time 3 day): 10 u/L
- PHOSPHORUS (72 h, time 3 day): 11.5 mg/dL
- POTASSIUM (72 h, time 3 day): 6.21 MEQ/L
- SODIUM (72 h, time 3 day): 143.8 MEQ/L
- TOTAL BILIRUBIN (72 h, time 3 day): 0.25 mg/dL
- TOTAL PROTEIN (72 h, time 3 day): 6 G/DL
- URIC ACID (72 h, time 3 day): 1.45 mg/dL
- ABSOLUTE BASOPHIL (120 h, time 5 day): 0 CELLS/uL
- ABSOLUTE EOSINOPHIL (120 h, time 5 day): 0 CELLS/uL
- ABSOLUTE LYMPHOCYTE (120 h, time 5 day): 9110 CELLS/uL
- ABSOLUTE MONOCYTE (120 h, time 5 day): 78 CELLS/uL
- ABSOLUTE SEGMENTED NEUTROPHIL (120 h, time 5 day): 412 CELLS/uL
- BASOPHIL (120 h, time 5 day): 0%
- EOSINOPHIL (120 h, time 5 day): 0%
- ERYTHROCYTE COUNT (120 h, time 5 day): 5.3 x10E6/uL
- HEMATOCRIT (120 h, time 5 day): 33.8%
- HEMOGLOBIN (120 h, time 5 day): 12.93 G/DL
- LEUKOCYTE COUNT (120 h, time 5 day): 9.6 x10E3/uL
- LYMPHOCYTE (120 h, time 5 day): 95.33%
- MEAN CORPUSCULAR HEMOGLOBIN (120 h, time 5 day): 24.43 pg
- MEAN CORPUSCULAR HEMOGLOBIN CONCENTRATION (120 h, time 5 day): 38.27 G/DL
- MEAN CORPUSCULAR VOLUME (120 h, time 5 day): 63.8 fL
- MONOCYTE (120 h, time 5 day): 0.67%
- NEUTROPHIL (120 h, time 5 day): 4%
- NUCLEATED RED BLOOD CELLS (120 h, time 5 day): 0 /100WBC
- PLATELET COUNT (120 h, time 5 day): 1024.33 x10E3/uL
- ALANINE AMINOTRANSFERASE (120 h, time 5 day): 34.33 u/L
- ALBUMIN (120 h, time 5 day): 4.7 G/DL
- ALKALINE PHOSPHATASE (120 h, time 5 day): 261 u/L
- ASPARTATE AMINOTRANSFERASE (120 h, time 5 day): 61.33 u/L
- BLOOD UREA NITROGEN (120 h, time 5 day): 17 mg/dL
- CARBON DIOXIDE (120 h, time 5 day): 26.33 mmol/L
- CHLORIDE (120 h, time 5 day): 109.33 MEQ/L
- CHOLESTEROL (120 h, time 5 day): 127 mg/dL
- CREATINE PHOSPHOKINASE (120 h, time 5 day): 232.33 u/L
- CREATININE (120 h, time 5 day): 0.21 mg/dL
- GLUCOSE (120 h, time 5 day): 140.33 mg/dL
- LACTATE DEHYDROGENASE (120 h, time 5 day): 60.33 u/L
- LIPASE (120 h, time 5 day): 9 u/L
- PHOSPHORUS (120 h, time 5 day): 11.03 mg/dL
- POTASSIUM (120 h, time 5 day): 6.28 MEQ/L
- SODIUM (120 h, time 5 day): 148.93 MEQ/L
- TOTAL BILIRUBIN (120 h, time 5 day): 0.2 mg/dL
- TOTAL PROTEIN (120 h, time 5 day): 6.63 G/DL
- URIC ACID (120 h, time 5 day): 1.83 mg/dL
